# Columns and labels:
# rat [1] = settings: Multigenerational reproductive toxicity study, long evans, Oral, Feed, dose end: 2 generation
# rat [2] = settings: Multigenerational reproductive toxicity study, wistar, Oral, Feed, dose end: 2 generation
# dog = settings: Chronic toxicity; beagle; Oral; Capsule; dose end: 52 week; group: systemic; systemic / in life observation / body weight / body weight gain
# rat [3] = settings: Prenatal developmental toxicity study, sprague dawley, Oral, Gavage/Intubation, dose end: 15 GD, group: maternal
# rat [4] = settings: Multigenerational reproductive toxicity study, wistar, Oral, Feed, dose end: 2 generation; remark: listed apart in the source
# mouse [5] = settings: Multigenerational reproductive toxicity study, cd1, Oral, Feed, dose end: 1 generation
# mouse [6] = settings: Prenatal developmental toxicity study; cd1; Oral; Gavage/Intubation; dose end: 16 GD; group: developmental; developmental / developmental landmark / vaginal opening / vaginal opening + systemic / in life observation / body weight / litter weight + …
# mouse [7] = settings: Developmental neurotoxicity study, other, Oral, Gavage/Intubation, dose end: 147 PND, group: cannot be grouped
# rat [8] = settings: Prenatal developmental toxicity study, wistar, Oral, Gavage/Intubation, dose end: 18 GD
# mouse [9] = settings: Prenatal developmental toxicity study, cd1, Injection, Subcutaneous, dose end: 16 GD
# mouse [10] = settings: Multigenerational reproductive toxicity study; cd1; Oral; Feed; dose end: 2 generation; group: reproductive; reproductive / reproductive performance / reproductive performance other / NOS + reproductive / reproductive performance / fertility / …
# rat [11] = settings: Prenatal developmental toxicity study, other, Oral, Gavage/Intubation, dose end: 15 GD
# rat [12] = settings: Prenatal developmental toxicity study, other, Oral, Gavage/Intubation, dose end: 15 GD; remark: listed apart in the source
# rat [13] = settings: Subchronic oral toxicity in rodents, other, Gavage/Intubation, dose end: 90 day, group: systemic, systemic / pathology microscopic / stomach / inflammation + systemic / pathology gross / stomach / thickened + systemic / pathology …
# [14] = group: offspring, systemic / in life observation / body weight / offspring (pup) weight + developmental / offspring survival late / viability index / …
# [15] = group: parental, systemic / in life observation / body weight / body weight + systemic / in life observation / body weight / body weight gain
# [16] = group: offspring, systemic / in life observation / clinical signs / body cold to touch + systemic / in life observation / clinical signs / emaciation + …
# [17] = group: parental, systemic / in life observation / body weight / body weight + systemic / in life observation / body weight / body weight gain + systemic / …
# [18] = group: reproductive, reproductive / offspring survival early / litter size / litter size
# [19] = systemic / in life observation / body weight / body weight gain + systemic / in life observation / food consumption / food consumption + …
# [20] = group: offspring, systemic / in life observation / body weight / offspring (pup) weight
# [21] = group: offspring, systemic / in life observation / body weight / offspring (pup) weight + developmental / offspring survival late / lactation index / …
# [22] = systemic / clinical chemistry / [other] / [other] + systemic / in life observation / clinical signs / [other] + systemic / in life …
# [23] = systemic / in life observation / clinical signs / [other] + systemic / in life observation / clinical signs / aggressive behavior
# [24] = group: developmental, systemic / in life observation / body weight / offspring (pup) weight + systemic / organ weight / epididymis / absolute + systemic / organ …
# [25] = group: maternal, reproductive / reproductive performance / gestational length / gestational length + systemic / in life observation / body weight / body …
# [26] = group: developmental, developmental / developmental malformation / general / [other] + developmental / developmental landmark / nipple development / nipple …
# [27] = group: maternal, systemic / in life observation / body weight / body weight gain
# [28] = group: developmental, developmental / developmental malformation / bone / curled + developmental / developmental malformation / mouth / jaw / cleft palate + …
# [29] = group: developmental, developmental / developmental malformation / bone / bent + developmental / developmental malformation / mouth / jaw / cleft palate + …
# [30] = group: maternal, systemic / in life observation / body weight / body weight
# [31] = group: maternal, systemic / in life observation / body weight / body weight + reproductive / reproductive performance / resorptions / resorptions + systemic…
compound,measurement,setting,value
Cc1ccc(N(SC(F)(Cl)Cl)S(=O)(=O)N(C)C)cc1 [Tolylfluanid],LOAEL,"rat [1]; group: offspring, systemic / in life observation / body weight / offspring (pup) weight + developmental / offspring survival late / [other] / [other]",375 mg/kg/day
same,LEL,"rat [1]; group: offspring, systemic / in life observation / body weight / offspring (pup) weight + developmental / offspring survival late / [other] / [other] + …",375 mg/kg/day
same,NEL,rat [1]; [14],75 mg/kg/day
same,NOAEL,rat [1]; [14],75 mg/kg/day
same,LEL,rat [1]; [15],375 mg/kg/day
same,LOAEL,rat [1]; [15],375 mg/kg/day
same,NEL,rat [1]; [15],75 mg/kg/day
same,NOAEL,rat [1]; [15],75 mg/kg/day
same,LEL,rat [2]; [16],57.5 mg/kg/day
same,LOAEL,rat [2]; [16],57.5 mg/kg/day
same,NEL,rat [2]; [16],7.9 mg/kg/day
same,NOAEL,rat [2]; [16],7.9 mg/kg/day
same,LEL,rat [2]; [17],75.2 mg/kg/day
same,LOAEL,rat [2]; [17],75.2 mg/kg/day
same,NEL,rat [2]; [17],9.5 mg/kg/day
same,NOAEL,rat [2]; [17],9.5 mg/kg/day
same,LEL,rat [2]; [18],70.4 mg/kg/day
same,LOAEL,rat [2]; [18],70.4 mg/kg/day
same,NEL,rat [2]; [18],9.1 mg/kg/day
same,NOAEL,rat [2]; [18],9.1 mg/kg/day
same,LEL,dog,62.5 mg/kg/day
same,LOAEL,dog,62.5 mg/kg/day
same,LOAEL,rat [3]; systemic / in life observation / body weight / body weight gain + systemic / in life observation / food consumption / food consumption,1000 mg/kg/day
same,LEL,rat [3]; [19],1000 mg/kg/day
same,NEL,rat [3]; [19],300 mg/kg/day
same,NOAEL,rat [3]; [19],300 mg/kg/day
same,LEL,rat [4]; [20],83.4 mg/kg/day
same,LOAEL,rat [4]; [20],83.4 mg/kg/day
same,NEL,rat [4]; [21],20.1 mg/kg/day
same,NOAEL,rat [4]; [21],20.1 mg/kg/day
same,LEL,rat [4]; [15],83.4 mg/kg/day
same,LOAEL,rat [4]; [15],83.4 mg/kg/day
same,NEL,rat [4]; [17],20.1 mg/kg/day
same,NOAEL,rat [4]; [17],20.1 mg/kg/day
same,LEL,rat [4]; [18],336 mg/kg/day
same,LOAEL,rat [4]; [18],> 336 mg/kg/day
same,NEL,rat [4]; [18],83.4 mg/kg/day
same,NOAEL,rat [4]; [18],≥ 336 mg/kg/day
CC/C(=C(/CC)c1ccc(O)cc1)c1ccc(O)cc1 [Diethylstilbestrol],NOAEL,mouse [5]; [20],≥ 7.5e-09 mg/kg/day
same,NOAEL,"mouse [5]; group: reproductive, reproductive / reproductive performance / reproductive performance other / NOS + reproductive / reproductive performance / fertility / …",≥ 7.5e-09 mg/kg/day
same,LEL,mouse [6],0.01 mg/kg/day
same,LOAEL,mouse [6],> 0.01 mg/kg/day
same,NEL,mouse [6],< 0.01 mg/kg/day
same,NOAEL,mouse [6],≥ 0.01 mg/kg/day
same,LOAEL,mouse [7]; [22],> 0.003 mg/kg/day
same,NOAEL,mouse [7]; [22],≥ 0.003 mg/kg/day
same,LEL,mouse [7]; [23],0.0003 mg/kg/day
same,NEL,mouse [7]; [23],< 0.0003 mg/kg/day
same,LEL,rat [8]; [24],0.03 mg/kg/day
same,LOAEL,rat [8]; [24],> 0.03 mg/kg/day
same,NEL,rat [8]; [24],< 0.03 mg/kg/day
same,NOAEL,rat [8]; [24],≥ 0.03 mg/kg/day
same,LEL,rat [8]; [25],0.03 mg/kg/day
same,LOAEL,rat [8]; [25],> 0.03 mg/kg/day
same,NEL,rat [8]; [25],< 0.03 mg/kg/day
same,NOAEL,rat [8]; [25],≥ 0.03 mg/kg/day
same,LEL,mouse [9]; [26],0.1 mg/kg/day
same,LOAEL,mouse [9]; [26],> 0.1 mg/kg/day
same,NEL,mouse [9]; [26],0.05 mg/kg/day
same,NOAEL,mouse [9]; [26],≥ 0.1 mg/kg/day
same,LEL,mouse [9]; [27],0.0025 mg/kg/day
same,LOAEL,mouse [9]; [27],0.0025 mg/kg/day
same,NEL,mouse [9]; [27],< 0.0025 mg/kg/day
same,NOAEL,mouse [9]; [27],< 0.0025 mg/kg/day
same,NOAEL,mouse [10],≥ 7.5e-09 mg/kg/day
"CCC12COCN1COC2 [5-Ethyl-1-aza-3,7-dioxabicyclo[3.3.0]octane]",LEL,rat [11]; [28],650 mg/kg/day
same,LOAEL,rat [11]; [28],650 mg/kg/day
same,NEL,rat [11]; [28],250 mg/kg/day
same,NOAEL,rat [11]; [28],250 mg/kg/day
same,LEL,rat [11]; [27],650 mg/kg/day
same,LOAEL,rat [11]; [27],650 mg/kg/day
same,NEL,rat [11]; [27],250 mg/kg/day
same,NOAEL,rat [11]; [27],250 mg/kg/day
same,LEL,rat [12]; [29],750 mg/kg/day
same,LOAEL,rat [12]; [29],750 mg/kg/day
same,NEL,rat [12]; [29],500 mg/kg/day
same,NOAEL,rat [12]; [29],500 mg/kg/day
same,LEL,rat [12]; [30],500 mg/kg/day
same,LOAEL,rat [12]; [30],500 mg/kg/day
same,NEL,rat [12]; [31],250 mg/kg/day
same,NOAEL,rat [12]; [31],250 mg/kg/day
same,LEL,rat [13],50 mg/kg/day
same,LOAEL,rat [13],50 mg/kg/day

# — EPA's ToxRefDB 2
